US9938230B2, “Esters or salts of 2-hydroxy-4-propylcyclohepta-2,4,6-trienone and application thereof in preparation of animal antibacterial agents and growth promoters used in feed” (GUANGZHOU INSIGHTER BIOTECHNOLOGY CO., LTD., priority 2014, dated 2018)

Tests used:
[1] = Optical stability test of different metal salts, 2% premix, illumination at 4500-5000 lux for 5 days, HPLC; type: physicochemical; conditions: for Residual content of 5 days later (%): 2% premix; for Initial content (%): 2% premix with corncob powder, before illumination
Procedure: Samples (the premixes) were spread in a stability test chamber and subjected to illumination at 4500-5000 lux for 5 days. Then 1.0 g of each of the samples (three duplicate samples from each sample) and 50 ml of ethanol were added into a conical flask, subjected to sonication for 10 min, and then filtrated through filter paper. The filtrate was transferred into a 50 ml volumetric flask, topped up to the final volume with ethanol, and then filtered with a 0.45 μm microporous membrane and subjected to HPLC analysis. Column: WondasilC18 (250 mm×4.6 mm, 5 μm); Mobile Phase: methanol/40 mM ammonium acetate (65:35, v/v; pH 4): Detection Wavelength: 220 nm; Column Temperature: 25° C.; […] Flow Rate: 0.8 or 1.0 ml/min.

[2] = Thermal stability test of different metal salts, 2% premix with corncob powder at 100° C., HPLC; type: physicochemical; conditions: for Residual content at 100° C. for 20 h (%) / Residual content at 100° C. for 40 h (%): 2% premix; for Initial content (%): 2% premix with corncob powder, before heating; for Residual content at 100° C. for 20 h (%) / Residual content at 100° C. for 40 h (%) / thermal stability (in words): 100° C.; for thermal stability (in words): compared with IST-009-001
Procedure: (§1) Each of the metal salts of 2-hydroxy-4-propylcyclohepta-2,4,6-trienone prepared in Embodiments 2-6 was mixed with corncob powder to obtain a premix with a mass fraction of 2%. Samples (the premix) were placed in crucibles and spread, and then placed in oven at 100° C. for different durations. Then 1.0 g of each of the samples (three duplicate samples from each sample) and 50 ml of ethanol were added into a conical flask, subjected to sonication for 10 min, and then filtrated through filter paper. The filtrate was transferred into a 50 ml volumetric flask, topped up to the final volume with ethanol, and then filtered with a 0.45 μm microporous membrane and subjected to HPLC analysis.
(§2) Chromatographic Parameters
(§3) Column: Wondasil C18 (250 mm×4.6 mm, 5 μm);
Mobile phase: methanol/40 mM ammonium acetate (65:35, v/v; pH 4):
(§4) Detection Wavelength: 220 nm;
(§5) Column Temperature: 25° C.;
(§6) Flow Rate: 0.8 or 1.0 ml/min.

[3] = tested on: yellow feather broilers (female); assay: Application in broiler feeds, 30 days test period, weight gain and feed conversion; type: in vivo; conditions: for Average daily weight gain / Average weight gain / Feed conversion efficiency / Consumption: 30 days; for Consumption: group of 100 broilers
Source text: 500 1-day-aged, healthy, fast-grown yellow feather broilers (female) in the same growing state and similar in weight were randomly divided into five groups according to table 4, 100 broilers in each group. Broilers of each group were fed with different dosages of magnesium 7-oxo-3-propylcyclohepta-1,3,5-trienolate or 2-hydroxy-4-propylcyclohepta-2,4,6-trienone.

[4] = Thermal stability test of 7-oxo-3-propylcyclohepta-1,3,5-trien-1-yl stearate, 2% premix with corncob powder in oven, HPLC; type: physicochemical
Procedure: as §1, with “The” for “Each of the metal salts of 2-hydroxy-4-propylcyclohepta-2,4,6-trienone”, “7-oxo-3-propylcyclohepta-1,3,5-trien-1-yl stearate (IST-009-050)” for “in Embodiments 2-6”, “60°” for “100°”, “C. or eat” for “C.”
as §2, §3
Mobile Phase: acetonitrile (100%);
as §4, §5, §6

[5] = 2.5 ppm mixed with feed, broilers
[6] = 5.0 ppm mixed with feed, broilers

**Q.** What does the source list for CCCc1cccc(=O)c(O)c1 [Calcium 7-oxo-3-propylcyclohepta-1,3,5-trienolate]?
**A.** Residual content of 5 days later (%) ([1]; 4500-5000 lux, 5 days): 0.89%; Residual content at 100° C. for 20 h (%) [2]: 1.73%; Residual content at 100° C. for 40 h (%) [2]: 1.67%

**Q.** For CCCc1cccc(=O)c(O)c1 [IST-009-001, 2-hydroxy-4-propylcyclohepta-2,4,6-trienone], which “Average daily weight gain” value [3, 5] is on record?
**A.** 26.1 g

**Q.** And the “Average weight gain” value [3, 5]?
**A.** 783 g

**Q.** And the Feed conversion efficiency [3, 5]?
**A.** 1.988

**Q.** What about the “Consumption” value ([3]; 2.5 ppm mixed with feed) of the same compound?
**A.** 156.66 kg

**Q.** And the “Average daily weight gain” value [3, 6]?
**A.** 26.8 g

**Q.** What about the “Average weight gain” value [3, 6] of the same compound?
**A.** 804 g

**Q.** What about the Feed conversion efficiency [3, 6] of the same compound?
**A.** 1.906

**Q.** And the “Consumption” value ([3]; 5.0 ppm mixed with feed)?
**A.** 153.24 kg

**Q.** And the “Initial content (%)” value [1]?
**A.** 2.0%

**Q.** What about the “Residual content of 5 days later (%)” value ([1]; 4500-5000 lux, 5 days) of the same compound?
**A.** 0%

**Q.** What about the “Initial content (%)” value [2] of the same compound?
**A.** 2.0%

**Q.** And the “Residual content at 100° C. for 20 h (%)” value [2]?
**A.** 0%

**Q.** What about the “Residual content at 100° C. for 40 h (%)” value [2] of the same compound?
**A.** 0%

**Q.** What about the “Content (%)” value ([4]; 2% premix, 80° C., 22 h) of the same compound?
**A.** 0%

**Q.** What about the “Content (%)” value ([4]; 2% premix, 80° C., 44 h) of the same compound?
**A.** 0%

**Q.** And the “Content (%)” value ([4]; 2% premix, 80° C., 68 h)?
**A.** 0%

**Q.** With CCCCCCCCCCCCCCCCCC(=O)Oc1cc(CCC)cccc1=O [IST-009-050, 7-oxo-3-propylcyclohepta-1,3,5-trien-1-yl stearate] as the compound, how does the “Content (%)” value ([4]; 2% premix with corncob powder, before heating (no temperature, no time)) read?
**A.** 2.0%

**Q.** And the “Content (%)” value ([4]; 2% premix, 60° C., 22 h)?
**A.** 0.84%

**Q.** What about the “Content (%)” value ([4]; 2% premix, 60° C., 44 h) of the same compound?
**A.** 0.35%

**Q.** And the “Content (%)” value ([4]; 2% premix, 60° C., 68 h)?
**A.** 0.14%

**Q.** And the “Content (%)” value ([4]; 2% premix, 80° C., 22 h)?
**A.** 0.61%

**Q.** And the “Content (%)” value ([4]; 2% premix, 80° C., 44 h)?
**A.** 0.03%

**Q.** What about the “Content (%)” value ([4]; 2% premix, 80° C., 68 h) of the same compound?
**A.** 0%

**Q.** And the “thermal stability (in words)” value ([4]; compared with IST-009-001)?
**A.** better than the unesterified 2-hydroxy-4-propylcyclohepta-2,4,6-trienone (IST-009-001), but not satisfactory yet

**Q.** Which “Average daily weight gain” value [3, 5] does the source give for CCCc1cccc(=O)c(O)c1 [Magnesium 7-oxo-3-propylcyclohepta-1,3,5-trienolate] here?
**A.** 26.2 g

**Q.** And the “Average weight gain” value [3, 5]?
**A.** 785 g

**Q.** What about the Feed conversion efficiency [3, 5] of the same compound?
**A.** 1.984

**Q.** And the “Consumption” value ([3]; 2.5 ppm mixed with feed)?
**A.** 155.94 kg

**Q.** And the “Average daily weight gain” value [3, 6]?
**A.** 26.6 g

**Q.** What about the “Average weight gain” value [3, 6] of the same compound?
**A.** 798 g

**Q.** And the Feed conversion efficiency [3, 6]?
**A.** 1.899

**Q.** And the “Consumption” value ([3]; 5.0 ppm mixed with feed)?
**A.** 151.54 kg

**Q.** What about the “feed conversion efficiency (in words)” value ([3]; broilers, 30 days test period) of the same compound?
**A.** significantly improved

**Q.** What about the “weight gain (in words)” value ([3]; broilers, 30 days test period) of the same compound?
**A.** significantly improved

**Q.** And the “Residual content of 5 days later (%)” value ([1]; 4500-5000 lux, 5 days)?
**A.** 1.52%

**Q.** What about the “Residual content at 100° C. for 40 h (%)” value [2] of the same compound?
**A.** 1.99%

**Q.** Which results are given for CCCc1cccc(=O)c(O)c1 [Manganese 7-oxo-3-propylcyclohepta-1,3,5-trienolate]?
**A.** Residual content of 5 days later (%) ([1]; 4500-5000 lux, 5 days): 1.96%; optical stability (in words) ([1]; 4500-5000 lux, 5 days): most significant; Initial content (%) [2]: 2.0%; Residual content at 100° C. for 20 h (%) [2]: 1.99%; Residual content at 100° C. for 40 h (%) [2]: 1.98%; thermal stability (in words) [2]: highest thermal stability

**Q.** For CCCc1cccc(=O)c(O)c1 [magnesium 7-oxo-3-propylcyclohepta-1,3,5-trienolate], which “thermal stability (in words)” value [2] is on record?
**A.** highest thermal stability

**Q.** Which “Initial content (%)” value [1] does the source give for CCCc1cccc(=O)c([O-])c1.[K+] [potassium 7-oxo-3-propylcyclohepta-1,3,5-trienolate] here?
**A.** 2.0%

**Q.** What about the “Residual content of 5 days later (%)” value ([1]; 4500-5000 lux, 5 days) of the same compound?
**A.** 0.17%

**Q.** What about the “Initial content (%)” value [2] of the same compound?
**A.** 2.0%

**Q.** What about the “Residual content at 100° C. for 20 h (%)” value [2] of the same compound?
**A.** 1.43%

**Q.** What about the “Residual content at 100° C. for 40 h (%)” value [2] of the same compound?
**A.** 1.13%

**Q.** With CCCc1cccc(=O)c([O-])c1.[Na+] [sodium 7-oxo-3-propylcyclohepta-1,3,5-trienolate] as the compound, how does the “Initial content (%)” value [1] read?
**A.** 2.0%

**Q.** And the “Residual content of 5 days later (%)” value ([1]; 4500-5000 lux, 5 days)?
**A.** 0.05%

**Q.** And the “Initial content (%)” value [2]?
**A.** 2.0%

**Q.** And the “Residual content at 100° C. for 20 h (%)” value [2]?
**A.** 1.31%

**Q.** And the “Residual content at 100° C. for 40 h (%)” value [2]?
**A.** 1.11%
